What was measured:
prolyl 4-hydroxylase = conditions: U.S. Pat. Nos. 5,789,426; 5,965,585; 5,965,586; cited from earlier work
P4-H [1] = experiment: Collagen-derived serum biomarkers (PIIINP, NC1, NTD) for P4-H activity in a tyrosinemia I patient during NTBC treatment; assay type: in vivo, human
Description: A total of ten biomarkers were monitored from just before initiation of NTBC medication to up to 103 days of treatment, generating a total of 60 data points. […] P4-H activity was assessed via specific antigens released from three different groups of collagens, all of which are substrates for this enzyme. These biomarkers, quantified by specific radioimmunoassay, consisted of PIIINP, an indicator for the fibril-forming collagen type III; NC1, a marker for the sheet-forming collagen type IV; and NTD, an indicator for the beaded filament-forming collagen type VI. The P1 antigen, derived from the non-collagenous protein laminin and thus not dependent on P4-H activity, served as control.

laminin P1 antigen = experiment: Control biomarker P1 antigen of laminin (P4-H independent) during NTBC treatment; assay type: in vivo, human; conditions: P4-H independent protein
Description: Inherit Metab. […] Res. 39:[…]

P4-H [2] = conditions: one other tyrosinemic child (Pitkanen et al. 1999); cited from earlier work

Structure (SMILES)	inhibition of prolyl 4-hydroxylase (prolyl 4-hydroxylase)	NCI (collagen type IV biomarker) rise over initial value (P4-H [1]; after 103 days on NTBC) [factor]	NTC (collagen type VI biomarker) rise over initial value (P4-H [1]; after 103 days on NTBC) [factor]	biomarkers for P4-H activity (PIIINP, NC1, NTD), response to NTBC (P4-H [1]; three months study period)	laminin P1 antigen, response to NTBC treatment (laminin P1 antigen)	initially elevated PIIINP level, response to treatment with NTBC (P4-H [2])
Cc1c(O)c(=O)ccn1C [DMHP, 1,2-dimethyl-3-hydroxypyrid-4-one]	known inhibitors of prolyl 4-hydroxylase					
O=C1CCCC(=O)C1C(=O)c1ccc(C(F)(F)F)cc1[N+](=O)[O-] [NTBC, 2-(2-nitro-4-trifluoromethylbenzoyl)-cyclohexane-1,3-dione]		1.1	1.1	entirely unresponsive	unresponsive	non-responsive

— patent publication US20050288187A1, “Inhibitor development for 4-hydroxyphenylpyruvate dioxygenase, employing tyrosinemia 1 as a model for human diseases mediated by 2-oxoacid utilizing dioxygenases” (priority 2002, published 2005)
